{
  "source": "patent US10258583B2",
  "about": "“Extended release liquid compositions of guanfacine” (SUN PHARMACEUTICAL INDUSTRIES LIMITED, priority 2014, dated 2019)",
  "key": {"[1]": {"assay": "Osmolality measurements (Osmomat 030-D)", "format": "physicochemical", "details": "samples of composition prepared as per Example 13", "from_the_text": "The term “osmolality,” as used herein, means the number of moles of any water-soluble compound per kg of the carrier. In the present invention, the osmolality may be measured according to known methods, such as using a Vapor pressure Osmometer, a Colloid Osmometer, or a Freezing Point Depression Osmometer such as Osmomat® 030-D or Osmomat® 3000, in particular by a Freezing Point Depression Osmometer. In the present invention, pharmaceutically acceptable carrier has an osmolality of about 1 osmol/kg or more than about 1 osmol/kg of the pharmaceutically acceptable carrier.\nThe term “osmolality ratio,” as used herein, means the ratio of osmolality of the external phase to the osmolality of the internal phase. […]\nXylitol, microcrystalline cellulose-sodium carboxymethyl cellulose, xanthan gum, strawberry flavor, sucralose, citric acid, methyl paraben, propyl paraben and colloidal silicon dioxide, purified water were mixed as per Example 13. This suspension was then filtered and diluted with purified water, and the osmolality of the external phase was measured using Osmomat 030-D.\nVarious solutions having various concentrations of sodium chloride were prepared as per Examples (A)-(D). The osmolalities of these solutions were measured using Osmomat 030-D.\nSodium chloride was dissolved in purified water as per Examples A-D. The osmolality of these solutions were measured using Osmomat 030-D."}, "[2]": {"details": "cited from earlier work"}, "[3]": {"assay": "pH dependent degradation profile - solution state stability", "format": "physicochemical", "from_the_text": "Guanfacine, particularly guanfacine hydrochloride, is found to degrade at high pH values. […] One of the major impurity of guanfacine is 2,6-dichlorophenyl acetic acid. [table]"}},
  "data": [
    {"compound": "Cl.N=C(N)NC(=O)Cc1c(Cl)cccc1Cl", "note": "[Guanfacine hydrochloride, N-amidino-2-(2,6-dichlorophenyl)-acetamide monohydrochloride]", "values": [
      {"measurement": "Osmolality", "setting": "[1]", "value": 0.006, "unit": "OSMOL/Kg"},
      {"measurement": "solubility in acetone", "setting": "[2]; acetone", "value": "slightly soluble"},
      {"measurement": "solubility in alcohol", "setting": "[2]; alcohol", "value": "sparingly soluble"},
      {"measurement": "solubility in water", "setting": "[2]; water", "value": "approximately 1 mg/mL"},
      {"measurement": "% Assay", "setting": "[3]; pH 1.2, 0 hours", "value": 101.2, "unit": "%"},
      {"measurement": "% Assay", "setting": "[3]; pH 1.2, 1 hour", "value": 101.2, "unit": "%"},
      {"measurement": "% Assay", "setting": "[3]; pH 1.2, 4 hours", "value": 101.2, "unit": "%"},
      {"measurement": "% Assay", "setting": "[3]; pH 1.2, 8 hours", "value": 101.1, "unit": "%"},
      {"measurement": "% Assay", "setting": "[3]; pH 1.2, 16 hours", "value": 101.6, "unit": "%"},
      {"measurement": "% Assay", "setting": "[3]; pH 1.2, 24 hours", "value": 101.4, "unit": "%"},
      {"measurement": "% Assay", "setting": "[3]; pH 2.2, 0 hours", "value": 100.3, "unit": "%"},
      {"measurement": "% Assay", "setting": "[3]; pH 2.2, 1 hour", "value": 100.5, "unit": "%"},
      {"measurement": "% Assay", "setting": "[3]; pH 2.2, 4 hours", "value": 100.4, "unit": "%"},
      {"measurement": "% Assay", "setting": "[3]; pH 2.2, 8 hours", "value": 100.4, "unit": "%"},
      {"measurement": "% Assay", "setting": "[3]; pH 2.2, 16 hours", "value": 100.3, "unit": "%"},
      {"measurement": "% Assay", "setting": "[3]; pH 2.2, 24 hours", "value": 100.2, "unit": "%"},
      {"measurement": "% Assay", "setting": "[3]; pH 4.5, 0 hours", "value": 99.4, "unit": "%"},
      {"measurement": "% Assay", "setting": "[3]; pH 4.5, 1 hour", "value": 99.0, "unit": "%"},
      {"measurement": "% Assay", "setting": "[3]; pH 4.5, 4 hours", "value": 98.7, "unit": "%"},
      {"measurement": "% Assay", "setting": "[3]; pH 4.5, 8 hours", "value": 98.9, "unit": "%"},
      {"measurement": "% Assay", "setting": "[3]; pH 4.5, 16 hours", "value": 98.7, "unit": "%"},
      {"measurement": "% Assay", "setting": "[3]; pH 4.5, 24 hours", "value": 98.5, "unit": "%"},
      {"measurement": "% Assay", "setting": "[3]; pH 6.8, 0 hours", "value": 99.5, "unit": "%"},
      {"measurement": "% Assay", "setting": "[3]; pH 6.8, 1 hour", "value": 99.0, "unit": "%"},
      {"measurement": "% Assay", "setting": "[3]; pH 6.8, 4 hours", "value": 97.2, "unit": "%"},
      {"measurement": "% Assay", "setting": "[3]; pH 6.8, 8 hours", "value": 93.7, "unit": "%"},
      {"measurement": "% Assay", "setting": "[3]; pH 6.8, 16 hours", "value": 86.3, "unit": "%"},
      {"measurement": "% Assay", "setting": "[3]; pH 6.8, 24 hours", "value": 79.9, "unit": "%"},
      {"measurement": "% Assay", "setting": "[3]; pH 7.5, 0 hours", "value": 100.9, "unit": "%"},
      {"measurement": "% Assay", "setting": "[3]; pH 7.5, 1 hour", "value": 99.9, "unit": "%"},
      {"measurement": "% Assay", "setting": "[3]; pH 7.5, 4 hours", "value": 97.1, "unit": "%"},
      {"measurement": "% Assay", "setting": "[3]; pH 7.5, 8 hours", "value": 92.2, "unit": "%"},
      {"measurement": "% Assay", "setting": "[3]; pH 7.5, 16 hours, listed as guanfacine, monohydrochloride", "value": 84, "unit": "%"},
      {"measurement": "% Assay", "setting": "[3]; pH 7.5, 16 hours, monohydrochloride", "value": 84.0, "unit": "%"},
      {"measurement": "% Assay", "setting": "[3]; pH 7.5, 24 hours", "value": 77.5, "unit": "%"}
    ]}
  ]
}
